Measured values: the supplement of paper PMC10307832

Columns and labels:
Assay in all cases: relative viability (nuclei count vs DMSO), 5 days (fraction); higher = more cells survive
[1] = compound: CC(C)C[C@@H](C(=O)N[C@H](C(=O)OC1CCCC1)c1ccccc1)[C@H](O)C(=O)NO [Tosedostat] + CC(C)C[C@H](NC(=O)[C@H](Cc1ccccc1)NC(=O)c1cnccn1)B(O)O [Bortezomib] (partner 0.002 µM)
Procedure, shortened: (§1)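 Relative viability equals treated-well nuclei counts divided by vehicle-well nuclei counts. Counts came from 4× images of lung cancer cell lines grown in 1536-well plates for 5 days after pin-tool dosing on the day after seeding. Dosing used one drug alone or a fixed anchor-drug dose plus five library-drug doses (not always all listed) in √10 steps, and values are medians of duplicate plates.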

[2] = compound: CC(C)C[C@@H](C(=O)N[C@H](C(=O)OC1CCCC1)c1ccccc1)[C@H](O)C(=O)NO [Tosedostat] + C[C@@H](Oc1cc(-c2cnn(C3CCNCC3)c2)cnc1N)c1c(Cl)ccc(F)c1Cl [Crizotinib] (partner 1 µM)
Procedure, shortened: as §1

[3] = compound: CC1=NN=C(O1)C2=NN=C(C=C2)N3CCC(CC3)OC4=C(C=CC(=C4)F)Cl + CC(C)C[C@H](NC(=O)[C@H](Cc1ccccc1)NC(=O)c1cnccn1)B(O)O [Bortezomib] (partner 0.002 µM)
Procedure, shortened: as §1

[4] = compound: CC1=NN=C(O1)C2=NN=C(C=C2)N3CCC(CC3)OC4=C(C=CC(=C4)F)Cl + NC(=O)Nc1cc(-c2cccc(F)c2)sc1C(=O)N[C@H]1CCCNC1 [AZD7762] (partner 0.2 µM)
Procedure, shortened: as §1

Cell Line	relative viability ([1]; first compound 0.02 µM)	relative viability ([1]; first compound 0.06325 µM)	relative viability ([1]; first compound 0.2 µM)	relative viability ([1]; first compound 0.6325 µM)	relative viability ([1]; first compound 2 µM)	relative viability ([2]; first compound 0.02 µM)	relative viability ([2]; first compound 0.06325 µM)	relative viability ([2]; first compound 0.2 µM)	relative viability ([2]; first compound 0.6325 µM)	relative viability ([2]; first compound 2 µM)	relative viability ([3]; first compound 0.253 µM)	relative viability ([3]; first compound 0.8 µM)	relative viability ([3]; first compound 2.53 µM)	relative viability ([3]; first compound 8 µM)	relative viability ([4]; first compound 0.253 µM)	relative viability ([4]; first compound 0.8 µM)	relative viability ([4]; first compound 2.53 µM)	relative viability ([4]; first compound 8 µM)
NCI-H520	0.348	0.519	0.508	0.449	0.76	0.692	0.754	0.787	0.833	0.846	0.378	0.5	0.518	0.542				
NCI-H2085	1.22	1.14	1.07	1.03	0.977	0.842	0.98	0.91	0.896	0.814	0.745	0.813	1.03	0.761	0.636	0.667	0.797	0.607
NCI-H1944						1.11	1.01	1.04	1.08	0.942					0.368	0.348	0.561	0.441
LXF-289	1.05	0.992	0.974	0.978	0.989	0.838	0.703	0.821	0.76	0.799	0.682	0.674	0.753	0.619	0.898	0.757	1.12	0.967
NCI-H596	1.32	1.19	1	1.12	1.04	0.968	1.07	1.13	1.15	0.825		0.85	1.01	0.713	0.975	0.853	0.97	0.946
NCI-H441	0.471	0.396	0.332	0.396	0.404	0.648	0.761	0.496	0.335	0.401	0.294	0.362	0.305	0.234	0.621	0.632	0.69	0.608
NCI-H2126	1.13	1.14	1.14	1.08	1.03	0.974	1.02	1.02	0.954	0.935	0.965	0.907	0.842	0.837	0.893	0.854	0.929	0.849
HCC-15	1.19	0.98	0.956	0.869	0.998	0.939	0.836	0.834	0.777	0.635	0.485	0.407	0.415	0.395	0.733	0.571	0.639	0.608
COR-L23	1.22	0.918	0.914	0.969	1.1	0.86	0.554	0.642	0.604	0.524	0.737	0.754	0.836	0.68				
SK-LU-1	1.33	1.14	1.15	0.921	0.718	0.898	0.775	0.731	0.693	0.871	1.08	0.86	1.12	1.02				
